# Earlier results in patent US20250367122A1, “PHARMACEUTICAL COMPOSITION CONTAINING 1-{2-[(3S,4R)-1-{[(3R,4R)-1-CYCLOPENTYL-3-FLUORO-4-(4-METHOXYPHENYL)PYRROLIDIN-3-YL]CARBONYL}-4-(METHOXYMETHYL)PYRROLIDIN-3-YL]-5-(TRIFLUOROMETHYL)PHENYL}PIPERIDINE-4-CARBOXYLIC ACID OR PHARMACEUTICALLY ACCEPTABLE SALT OR CO-CRYSTAL THEREOF” (MITSUBISHI TANABE PHARMA CORPORATION, priority 2022, published 2025).
# System: melanocortin receptor (MCR)
# Conditions: as described in Patent Document 1
compound,measurement,value
"COC[C@H]1CN(C(=O)[C@]2(F)CN(C3CCCC3)C[C@H]2c2ccc(OC)cc2)C[C@@H]1c1ccc(C(F)(F)F)cc1N1CCC(C(=O)O)CC1 [Compound A, 1-{2-[(3S,4R)-1-{[(3R,4R)-1-cyclopentyl-3-fluoro-4-(4-methoxyphenyl)pyrrolidin-3-yl]carbonyl}-4-(methoxymethyl)pyrrolidin-3-yl]-5-(trifluoromethyl)phenyl}piperidine-4-carboxylic acid]",MCR activation effect,excellent
